Experimental data from ChEMBL document CHEMBL1201862, “PubChem BioAssay data set” (2004).
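In this assay, cells in 96-well plates receive the compound at five concentrations for 48 hours. Endpoints are linearly interpolated between the surrounding concentrations. GI50: concentration for 50% inhibition of growth.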 Activity calls are given as the source filed them. Rule as the data show it: active = GI50 up to about 1.1 µM and inactive = higher.

Experiments:
Assay in all cases: NCI anticancer screen, dose series, 48 h
[1] = tested on: NCI-H522
[2] = tested on: SF-295
[3] = tested on: HOP-92
[4] = tested on: HT-29
[5] = tested on: SNB-75
[6] = tested on: OVCAR-3
[7] = tested on: NCI-H23
[8] = tested on: KM12
[9] = tested on: OVCAR-8
[10] = tested on: 786-0
[11] = tested on: EKVX
[12] = tested on: UACC-62
[13] = tested on: SK-MEL-5
[14] = tested on: SNB-19
[15] = tested on: SK-MEL-28
[16] = tested on: RXF 393
[17] = tested on: RPMI-8226
[18] = tested on: SW-620

Measured: GI50

Oc1cc2cc(-c3ccccc3)[nH]c2c2ccccc12
inactive: [1] 15.3 µM | [2] 7.1 µM | [3] 23.8 µM | [4] 68.9 µM | [5] 33 µM | [6] 16.3 µM | [7] 15 µM | [8] 27.4 µM | [9] 32.7 µM | [10] > 59 µM | [11] > 48.9 µM | [12] 15.2 µM | [13] 14.1 µM | [14] 21.7 µM | [15] 42.3 µM | [16] 27.8 µM | [17] 16.6 µM | [18] 34.4 µM

COc1cc(/C=N\c2ccc(C(C)C)cc2)cc(OC)c1OC
inactive: [1] > 59.7 µM | [2] > 100 µM | [3] > 88.3 µM | [4] > 100 µM | [5] 98.4 µM | [6] > 100 µM | [7] > 100 µM | [8] > 100 µM | [9] > 100 µM | [10] > 100 µM | [11] > 100 µM | [12] > 100 µM | [13] > 78 µM | [14] > 100 µM | [15] > 100 µM | [16] > 100 µM | [17] > 42 µM | [18] > 37 µM

CCC1c2cc3n(c(=O)c2COC1O)Cc1c-3nc2ccccc2c1Cl (configuration not stated)
inactive: [1] 5.05 µM | [2] 20.9 µM | [3] > 100 µM | [4] 70.1 µM | [5] 20.5 µM | [6] > 100 µM | [7] 28.7 µM | [8] > 100 µM | [9] 55.3 µM | [10] 25.7 µM | [11] 66.1 µM | [12] 6.95 µM | [13] 29.4 µM | [14] 30.3 µM | [15] > 100 µM | [16] 73.8 µM | [17] > 29.3 µM | [18] > 100 µM

COc1nc(OC)c2c(=O)oc(-c3ccccc3)cc2n1
inactive: [1] > 100 µM | [2] > 100 µM | [3] > 100 µM | [4] > 100 µM | [5] 53.5 µM | [6] > 10 µM | [7] > 100 µM | [8] > 100 µM | [9] > 100 µM | [10] > 100 µM | [11] > 100 µM | [12] > 100 µM | [13] > 100 µM | [14] > 100 µM | [15] > 100 µM | [16] > 100 µM | [17] > 100 µM | [18] > 100 µM

CCOC(=O)C1=C(C)NC(=O)NC1c1ccc(OC)cc1OC (configuration not stated)
inactive: [1] > 100 µM | [2] > 100 µM | [3] > 100 µM | [4] > 100 µM | [5] > 100 µM | [6] > 100 µM | [7] > 100 µM | [8] > 100 µM | [9] > 100 µM | [10] > 100 µM | [11] > 100 µM | [12] > 100 µM | [13] > 100 µM | [14] > 100 µM | [16] 72.6 µM | [17] 79.1 µM | [18] > 100 µM

O=c1c2cc(Br)ccc2n(C2OC(CO)C(O)C(O)C2O)c(=S)n1-c1ccccc1 (configuration not stated)
inactive: [1] > 100 µM | [2] > 100 µM | [3] 98.2 µM | [4] > 100 µM | [5] 68.1 µM | [6] > 100 µM | [7] > 100 µM | [8] > 100 µM | [9] > 100 µM | [10] 82.4 µM | [11] > 100 µM | [14] > 100 µM | [15] > 100 µM | [16] > 100 µM | [17] > 100 µM | [18] > 100 µM

[O-][S+]1Nc2c(Cl)cc(Cl)c3c(Cl)cc(Cl)c(c23)N1
inactive: [1] 22.7 µM | [2] 53.1 µM | [3] 21.3 µM | [4] 41.9 µM | [5] 26.1 µM | [6] 30.6 µM | [7] 29.1 µM | [8] 44.6 µM | [9] 32.4 µM | [10] 18.5 µM | [11] 59.7 µM | [12] 22.3 µM | [13] 37.8 µM | [14] 40.3 µM | [15] 62.8 µM | [16] 21.9 µM | [17] 37.8 µM | [18] 37.2 µM

CCC12C=CCN3CC[C@]4(C(=C(C(=O)OC)[C@@H]1Nc1ccn(C5OC(COC(C)=O)C(OC(C)=O)C5OC(C)=O)c(=O)n1)Nc1ccccc14)C32 (some centres not stated)
inactive: [1] 3.84 µM | [2] 4.72 µM | [3] 4.31 µM | [4] 4.8 µM | [5] 3.95 µM | [6] 4.37 µM | [7] 1.62 µM | [8] 1.32 µM | [9] 5.16 µM | [10] 4.54 µM | [11] 5.81 µM | [12] 3.47 µM | [13] 4.5 µM | [14] 4.73 µM | [15] 4.55 µM | [16] 3.12 µM | [17] 5.46 µM | [18] 4.66 µM

O=C(/C=C/c1ccc[nH]1)c1ccccc1
inactive: [1] > 100 µM | [2] > 100 µM | [3] 56.2 µM | [4] > 100 µM | [5] 29.6 µM | [6] > 100 µM | [7] > 100 µM | [8] > 100 µM | [9] > 100 µM | [10] > 100 µM | [12] > 100 µM | [13] > 100 µM | [14] > 100 µM | [15] > 100 µM | [16] > 100 µM | [17] 95.9 µM | [18] > 100 µM

Nc1cccc2c1C(=O)c1cccc(N)c1C2=O
inactive: [1] > 100 µM | [3] > 100 µM | [4] > 100 µM | [5] > 100 µM | [6] > 100 µM | [7] > 100 µM | [8] > 100 µM | [9] > 100 µM | [10] > 100 µM | [11] > 100 µM | [12] > 100 µM | [13] > 100 µM | [14] > 100 µM | [15] > 100 µM | [16] 46.3 µM | [17] > 100 µM | [18] > 100 µM

Nc1n[n+]([O-])c2ccccc2[n+]1[O-] [TIRAPAZAMINE]
inactive: [1] 99.8 µM | [2] > 100 µM | [3] 29.7 µM | [4] > 100 µM | [5] 29.6 µM | [6] > 100 µM | [8] > 100 µM | [9] > 100 µM | [10] > 100 µM | [11] > 100 µM | [12] 61.7 µM | [13] 40.5 µM | [14] > 100 µM | [15] > 100 µM | [16] 57.5 µM | [17] 57.4 µM | [18] > 100 µM
